Measurements taken from patent publication US20160368853A1, “MONOESTERS, INNER COMPLEX SALTS OR MONOESTER SALTS OF HEXAHYDRO-BETA-ACID AND APPLICATION THEREOF AS ANIMAL FEED ADDITIVES” (GUANGZHOU INSIGHTER BIOTECHNOLOGY CO., LTD., priority 2014, published 2016).
Each block holds one substance with its values, some of them ahead of it.

Legend:
[1] = Thermo stability test of esters and/or salts of hexahydro-β-acid (2% premix, 100° C., HPLC); assay type: physicochemical; conditions: premix with corncob powder, initial content 2.0%, oven 100° C.
Method: Samples (the premixes) were placed in crucibles, and then placed in oven at 100° C. for different durations. Then 1.0 g of each of the samples (three duplicate samples from each sample) and 50 ml of ethanol were added into a conical flask, followed by the addition of 100 μL of concentrated hydrochloric acid. The mixture was then subjected to sonication for 5 minutes, and then filtrated. The filtrate was transferred into a 50 ml volumetric flask, topped up to the final volume with ethanol, and then filtered with a 0.45 μm microporous membrane and subjected to HPLC analysis.

[2] = test system: Duroc-Yorkshire-Landrace crossbred lean pigs; test: Application effect in pig feed (14 days feeding trial); assay type: in vivo; conditions: for Average daily weight gain / Average weight gain / Feed conversion efficiency / Consumption: pigs; for Consumption: 20 pigs
Source text: 120 67-day-aged, Duroc-Yorkshire-Landrace crossbred lean pigs similar in weight were randomly divided into six groups, 20 pigs in each group.

[3] = test system: fast-grown yellow feather broilers (female); test: Application effect in broiler feed (30 days feeding trial); assay type: in vivo; conditions: for Average daily weight gain / Average weight gain / Feed conversion efficiency / Survival rate / Consumption: broilers, 30 days; for Consumption: 100 broilers per group
Source text: 500 1-day-aged, healthy, fast-grown yellow feather broilers (female) in the same growing state and similar in weight were randomly divided into five groups according to table 2, 100 broilers in each group. Broilers of each group were fed with different dosages of mono decanoate ester of hexahydro-β-acid or hexahydro-β-acid.

[4] = Group 3, 5 mg/kg mixed with feed
[5] = Group 4, 25 mg/kg mixed with feed
[6] = Group 5, 5 mg/kg mixed with feed
[7] = Group 6, 25 mg/kg mixed with feed

Substance: hexahydro-β-acid [reference compound]
Average daily weight gain ([3]; 2 ppm mixed with feed): 24.83 g | Average weight gain ([3]; 2 ppm mixed with feed): 745 g | Feed conversion efficiency ([3]; 2 ppm mixed with feed): 1.983 | Survival rate ([3]; 2 ppm mixed with feed): 100% | Consumption ([3]; 2 ppm mixed with feed): 147.76 kg | Average daily weight gain ([3]; 20 ppm mixed with feed): 25.26 g | Average weight gain ([3]; 20 ppm mixed with feed): 758 g | Feed conversion efficiency ([3]; 20 ppm mixed with feed): 1.968 | Survival rate ([3]; 20 ppm mixed with feed): 100% | Consumption ([3]; 20 ppm mixed with feed): 149.18 kg | Content when being heated at 100° C. for 20 h [1]: 0.06% | Content when being heated at 100° C. for 44 h [1]: 0%

Substance: zinc salt of acetate ester of hexahydro-β-acid
Content when being heated at 100° C. for 20 h [1]: 1.64% | Content when being heated at 100° C. for 44 h [1]: 0.70%

Substance: laurate ester of hexahydro-β-acid
Content when being heated at 100° C. for 20 h [1]: 2.0% | Content when being heated at 100° C. for 44 h [1]: 1.96%

Substance: mono decanoate ester of hexahydro-β-acid
feed conversion efficiency of the broilers ([3]; 30 days test period, in words): significantly improved | weight gain of the broilers ([3]; 30 days test period, in words): significantly improved | Average daily weight gain ([3]; 2 ppm mixed with feed): 25.6 g | Average weight gain ([3]; 2 ppm mixed with feed): 768 g | Feed conversion efficiency ([3]; 2 ppm mixed with feed): 1.926 | Survival rate ([3]; 2 ppm mixed with feed): 100% | Consumption ([3]; 2 ppm mixed with feed): 147.94 kg | Average daily weight gain ([3]; 20 ppm mixed with feed): 26.57 g | Average weight gain ([3]; 20 ppm mixed with feed): 797 g | Feed conversion efficiency ([3]; 20 ppm mixed with feed): 1.837 | Survival rate ([3]; 20 ppm mixed with feed): 100% | Consumption ([3]; 20 ppm mixed with feed): 146.42 kg | improvement of the productivity of the broilers ([3]; compared with hexahydro-β-acid in the same dosage): more significant than that of the broilers fed with hexahydro-β-acid in the same dosage | Content when being heated at 100° C. for 20 h [1]: 1.93% | Content when being heated at 100° C. for 44 h [1]: 1.82%

Substance: magnesium salt of hexahydro-β-acid
Content when being heated at 100° C. for 20 h [1]: 1.49% | Content when being heated at 100° C. for 44 h [1]: 0.91%

Substance: ferrous salt of hexahydro-β-acid
Content when being heated at 100° C. for 20 h [1]: 0.14% | Content when being heated at 100° C. for 44 h [1]: 0.05%

Substance: mono acetate ester of hexahydro-β-acid
Content when being heated at 100° C. for 20 h [1]: 1.52% | Content when being heated at 100° C. for 44 h [1]: 1.11%

The next lines start with results.

Content when being heated at 100° C. for 20 h [1]: 0.17% | Content when being heated at 100° C. for 44 h [1]: 0.12%
Substance: Cobalt Salt of Acetate Ester of hexahydro-β-acid

Content when being heated at 100° C. for 20 h [1]: 1.98% | Content when being heated at 100° C. for 44 h [1]: 1.93%
Substance: cetylate ester of hexahydro-β-acid
feed conversion efficiency of the pigs ([2]; in words): significantly improved | weight gain of the pigs ([2]; in words): significantly improved | Average daily weight gain [2, 4]: 0.512 kg/day | Average weight gain [2, 4]: 7.18 kg | Feed conversion efficiency [2, 4]: 2.078 | Consumption [2, 4]: 298.4 kg | Average daily weight gain [2, 5]: 0.570 kg/day | Average weight gain [2, 5]: 7.985 kg | Feed conversion efficiency [2, 5]: 1.706 | Consumption [2, 5]: 272.5 kg | Average daily weight gain [2, 6]: 0.508 kg/day | Average weight gain [2, 6]: 7.11 kg | Feed conversion efficiency [2, 6]: 1.949 | Consumption [2, 6]: 277.2 kg | Average daily weight gain [2, 7]: 0.580 kg/day | Average weight gain [2, 7]: 8.12 kg | Feed conversion efficiency [2, 7]: 1.690 | Consumption [2, 7]: 274.5 kg

Content when being heated at 100° C. for 20 h [1]: 1.42% | Content when being heated at 100° C. for 44 h [1]: 0.7%
Substance: magnesium salt of acetate ester of hexahydro-β-acid

Content when being heated at 100° C. for 20 h [1]: 0.95% | Content when being heated at 100° C. for 44 h [1]: 0.52%
Substance: zinc salt of hexahydro-β-acid

Content when being heated at 100° C. for 20 h [1]: 0% | Content when being heated at 100° C. for 44 h [1]: 0%
Substance: manganese salt of acetate ester of hexahydro-β-acid

Content when being heated at 100° C. for 20 h [1]: 1.50% | Content when being heated at 100° C. for 44 h [1]: 1.28%
Substance: copper salt of acetate ester of hexahydro-β-acid

Content when being heated at 100° C. for 20 h [1]: 0.35% | Content when being heated at 100° C. for 44 h [1]: 0.09%
Substance: calcium salt of hexahydro-β-acid

Content when being heated at 100° C. for 20 h [1]: 1.69% | Content when being heated at 100° C. for 44 h [1]: 1.63%
Substance: Ferrous Salt of Acetate Ester of hexahydro-β-acid

Content when being heated at 100° C. for 20 h [1]: 1.21% | Content when being heated at 100° C. for 44 h [1]: 0.31%
Substance: calcium salt of acetate ester of hexahydro-β-acid
